According to patent US20250059171A1 (Hoffmann-La Roche Inc., priority 2021, published 2025):
Like-named read-outs stand apart in the source and are kept apart here.

Experiments:
[1] = target: HCoV-229E 3CLpro (Human coronavirus 229E, UniProt P0C6X1); experiment: HCoV-229E 3CLpro inhibition assay (FRET); format: biochemical
[2] = target: MERS-CoV 3CLpro (Middle East respiratory syndrome-related coronavirus, UniProt K9N7C7); experiment: biochemical
[3] = target: SARS-CoV-2 3CLpro (Severe acute respiratory syndrome coronavirus 2, UniProt P0DTD1); experiment: biochemical
[4] = target: SARS-CoV 3CLpro (Severe acute respiratory syndrome coronavirus, UniProt P0C6X7); experiment: biochemical

HCoV-229E 3CLpro, sequence (P0C6X1 2966-3267): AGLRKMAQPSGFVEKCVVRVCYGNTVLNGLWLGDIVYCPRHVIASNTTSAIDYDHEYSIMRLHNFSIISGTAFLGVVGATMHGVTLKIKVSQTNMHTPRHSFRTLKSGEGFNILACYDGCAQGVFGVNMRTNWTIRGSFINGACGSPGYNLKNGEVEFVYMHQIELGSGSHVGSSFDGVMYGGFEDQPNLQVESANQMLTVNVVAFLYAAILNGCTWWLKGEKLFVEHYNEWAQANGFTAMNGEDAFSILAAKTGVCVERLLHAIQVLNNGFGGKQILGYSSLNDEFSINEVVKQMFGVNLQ
MERS-CoV 3CLpro, sequence (K9N7C7 3248-3553): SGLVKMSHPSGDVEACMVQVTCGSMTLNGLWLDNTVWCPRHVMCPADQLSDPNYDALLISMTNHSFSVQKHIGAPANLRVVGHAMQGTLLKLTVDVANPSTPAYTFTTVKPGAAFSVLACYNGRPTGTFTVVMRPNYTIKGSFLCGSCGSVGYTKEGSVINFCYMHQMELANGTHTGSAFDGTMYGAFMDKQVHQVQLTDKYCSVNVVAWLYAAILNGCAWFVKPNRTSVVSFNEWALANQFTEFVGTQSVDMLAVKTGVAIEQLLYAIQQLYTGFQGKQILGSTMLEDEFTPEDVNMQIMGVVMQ

In the case of `CCC(CC)[C@H](NC(=O)C1(F)CC1)C(=O)N1C[C@H]2[C@@H]([C@H]1C(=O)NN(C[C@@H]1CCNC1=O)C(=O)[C@@H](F)Cl)C2(C)C` [Example 133, N-[(1S)-1-[(1R,2S,5S)-2-[[[(2S)-2-chloro-2-fluoro-acetyl]-[[(3S)-2-oxopyrrolidin-3-yl]methyl]amino]carbamoyl]-6,6-dimethyl-3-azabicyclo[3.1.0]hexane-3-carbonyl]-2-ethyl-butyl]-1-fluoro-cyclopropanecarboxamide], the IC50 [1] is reported as 40 nM, the IC50 [2] is reported as 106 nM and the IC50 [3] is reported as 20 nM. It also gave an IC50 [4] of 32 nM.

Compound `CCC(CC)[C@H](NC(=O)C1CC(F)(F)C1)C(=O)N1C[C@@H]2CCC[C@@H]2[C@H]1C(=O)NN(C[C@@H]1CCNC1=O)C(=O)[C@H](F)Cl` [Example 134, N-[(1S)-1-[(3S,3aS,6aR)-3-[[[(2R)-2-chloro-2-fluoro-acetyl]-[[(3S)-2-oxopyrrolidin-3-yl]methyl]amino]carbamoyl]-3,3a,4,5,6,6a-hexahydro-1H-cyclopenta[c]pyrrole-2-carbonyl]-2-ethyl-butyl]-3,3-difluoro-cyclobutanecarboxamide] has an IC50 [1] of 36 nM, an IC50 [2] of 97 nM and an IC50 [3] of 10 nM. For the same compound, the IC50 [4] was 14 nM.

In the case of `CCC(CC)[C@H](NC(=O)C1CC1)C(=O)N1C[C@@H]2CCC[C@@H]2[C@H]1C(=O)NN(C[C@@H]1CCNC1=O)C(=O)[C@H](F)Cl` [Example 135, N-[(1S)-1-[(3S,3aS,6aR)-3-[[[(2R)-2-chloro-2-fluoro-acetyl]-[[(3S)-2-oxopyrrolidin-3-yl]methyl]amino]carbamoyl]-3,3a,4,5,6,6a-hexahydro-1H-cyclopenta[c]pyrrole-2-carbonyl]-2-ethyl-butyl]cyclopropanecarboxamide], the IC50 [1] is reported as 39 nM, the IC50 [2] is reported as 131 nM and the IC50 [3] is reported as 11 nM. For the same compound, the IC50 [4] was 15 nM.

`CCC(CC)[C@H](NC(=O)C(F)F)C(=O)N1C[C@@H]2CCC[C@@H]2[C@H]1C(=O)NN(C[C@@H]1CCNC1=O)C(=O)[C@H](F)Cl` [Example 136, N-[(1S)-1-[(3S,3aS,6aR)-3-[[[(2R)-2-chloro-2-fluoro-acetyl]-[[(3S)-2-oxopyrrolidin-3-yl]methyl]amino]carbamoyl]-3,3a,4,5,6,6a-hexahydro-1H-cyclopenta[c]pyrrole-2-carbonyl]-2-ethyl-butyl]-2,2-difluoro-acetamide] gave an IC50 [1] of 55 nM, an IC50 [2] of 74 nM and an IC50 [3] of 16 nM. It also gave an IC50 [4] of 15 nM.

`CCC(CC)[C@H](NC(=O)C1(F)CC1)C(=O)N1CC(C)(C)C[C@H]1C(=O)NN(C[C@@H]1CCNC1=O)C(=O)[C@H](F)Cl` [Example 138, N-[(1S)-1-[(2S)-2-[[[(2R)-2-chloro-2-fluoro-acetyl]-[[(3S)-2-oxopyrrolidin-3-yl]methyl]amino]carbamoyl]-4,4-dimethyl-pyrrolidine-1-carbonyl]-2-ethyl-butyl]-1-fluoro-cyclopropanecarboxamide] was tested, and the IC50 [1] was 54 nM, the IC50 [2] was 283 nM and the IC50 [3] was 16 nM. It also gave an IC50 [4] of 25 nM.

Work on `CCC(CC)[C@H](NC(=O)C(F)F)C(=O)N1CC(C)(C)C[C@H]1C(=O)NN(C[C@@H]1CCNC1=O)C(=O)[C@H](F)Cl` [Example 139, N-[(1S)-1-[(2S)-2-[[[(2R)-2-chloro-2-fluoro-acetyl]-[[(3S)-2-oxopyrrolidin-3-yl]methyl]amino]carbamoyl]-4,4-dimethyl-pyrrolidine-1-carbonyl]-2-ethyl-butyl]-2,2-difluoro-acetamide] yielded an IC50 [1] of 35 nM, an IC50 [2] of 139 nM and an IC50 [3] of 14 nM. It also gave an IC50 [4] of 18 nM.

`CCC(C)(C)[C@H](NC(=O)[C@H](C)F)C(=O)N1C[C@H]2[C@@H]([C@H]1C(=O)NN(C[C@@H]1CCNC1=O)C(=O)[C@H](F)Cl)C2(C)C` [Example 140, (2S)—N-[(1S)-1-[(1R,2S,5S)-2-[[[(2R)-2-chloro-2-fluoro-acetyl]-[[(3S)-2-oxopyrrolidin-3-yl]methyl]amino]carbamoyl]-6,6-dimethyl-3-azabicyclo[3.1.0]hexane-3-carbonyl]-2,2-dimethyl-butyl]-2-fluoro-propanamide] showed an IC50 [1] of 31 nM, an IC50 [2] of 94 nM and an IC50 [3] of 11 nM. The IC50 [4] was 25 nM.

`CCC(C)(C)[C@H](NC(=O)[C@@H](C)F)C(=O)N1C[C@H]2[C@@H]([C@H]1C(=O)NN(C[C@@H]1CCNC1=O)C(=O)[C@H](F)Cl)C2(C)C` [Example 141, (2R)—N-[(1S)-1-[(1R,2S,5S)-2-[[[(2R)-2-chloro-2-fluoro-acetyl]-[[(3S)-2-oxopyrrolidin-3-yl]methyl]amino]carbamoyl]-6,6-dimethyl-3-azabicyclo[3.1.0]hexane-3-carbonyl]-2,2-dimethyl-butyl]-2-fluoro-propanamide] was tested, and the IC50 [1] was 35 nM, the IC50 [2] was 117 nM and the IC50 [3] was 10 nM. The IC50 [4] was 15 nM.

With `CCC(C)(C)[C@H](NC(=O)C1CC1)C(=O)N1C[C@H]2[C@@H]([C@H]1C(=O)NN(C[C@@H]1CCNC1=O)C(=O)[C@H](F)Cl)C2(C)C` [Example 142, N-[(1S)-1-[(1R,2S,5S)-2-[[[(2R)-2-chloro-2-fluoro-acetyl]-[[(3S)-2-oxopyrrolidin-3-yl]methyl]amino]carbamoyl]-6,6-dimethyl-3-azabicyclo[3.1.0]hexane-3-carbonyl]-2,2-dimethyl-butyl]cyclopropanecarboxamide] the IC50 [1] was 31 nM, the IC50 [2] was 83 nM and the IC50 [3] was 10 nM. The IC50 [4] was 13 nM.

For `CCC(C)(C)[C@H](NC(=O)C1(F)CC1)C(=O)N1C[C@H]2[C@@H]([C@H]1C(=O)NN(C[C@@H]1CCNC1=O)C(=O)[C@H](F)Cl)C2(C)C` [Example 143, N-[(1S)-1-[(1R,2S,5S)-2-[[[(2R)-2-chloro-2-fluoro-acetyl]-[[(3S)-2-oxopyrrolidin-3-yl]methyl]amino]carbamoyl]-6,6-dimethyl-3-azabicyclo[3.1.0]hexane-3-carbonyl]-2,2-dimethyl-butyl]-1-fluoro-cyclopropanecarboxamide], the IC50 [1] was 28 nM, the IC50 [2] was 86 nM and the IC50 [3] was 8 nM. The IC50 [4] was 13 nM.

Compound `CCC(C)(C)[C@H](NC(=O)C(F)F)C(=O)N1C[C@H]2[C@@H]([C@H]1C(=O)NN(C[C@@H]1CCNC1=O)C(=O)[C@H](F)Cl)C2(C)C` [Example 144, N-[(1S)-1-[(1R,2S,5S)-2-[[[(2R)-2-chloro-2-fluoro-acetyl]-[[(3S)-2-oxopyrrolidin-3-yl]methyl]amino]carbamoyl]-6,6-dimethyl-3-azabicyclo[3.1.0]hexane-3-carbonyl]-2,2-dimethyl-butyl]-2,2-difluoro-acetamide] has an IC50 [1] of 33 nM, an IC50 [2] of 112 nM and an IC50 [3] of 11 nM. For the same compound, the IC50 [4] was 15 nM.

`CCC(C)(C)[C@H](NC(=O)C1(F)CC1)C(=O)N1C[C@H]2[C@@H]([C@H]1C(=O)NN(C[C@@H]1CCNC1=O)C(=O)[C@@H](F)Cl)C2(C)C` [Example 145, N-[(1S)-1-[(1R,2S,5S)-2-[[[(2S)-2-chloro-2-fluoro-acetyl]-[[(3S)-2-oxopyrrolidin-3-yl]methyl]amino]carbamoyl]-6,6-dimethyl-3-azabicyclo[3.1.0]hexane-3-carbonyl]-2,2-dimethyl-butyl]-1-fluoro-cyclopropanecarboxamide] gave an IC50 [1] of 77 nM, an IC50 [2] of 152 nM and an IC50 [3] of 18 nM. The IC50 [4] was 27 nM.

For `CCC(C)(C)[C@H](NC(=O)C1CC1)C(=O)N1C[C@H]2[C@@H]([C@H]1C(=O)NN(C[C@@H]1CCNC1=O)C(=O)[C@@H](F)Cl)C2(C)C` [Example 147, N-[(1S)-1-[(1R,2S,5S)-2-[[[(2S)-2-chloro-2-fluoro-acetyl]-[[(3S)-2-oxopyrrolidin-3-yl]methyl]amino]carbamoyl]-6,6-dimethyl-3-azabicyclo[3.1.0]hexane-3-carbonyl]-2,2-dimethyl-butyl]cyclopropanecarboxamide], the IC50 [1] was 40 nM, the IC50 [2] was 89 nM and the IC50 [3] was 12 nM. For the same compound, the IC50 [4] was 16 nM.

`CCC(C)(C)[C@H](NC(=O)C(F)F)C(=O)N1C[C@H]2[C@@H]([C@H]1C(=O)NN(C[C@@H]1CCNC1=O)C(=O)[C@@H](F)Cl)C2(C)C` [Example 148, N-[(1S)-1-[(1R,2S,5S)-2-[[[(2S)-2-chloro-2-fluoro-acetyl]-[[(3S)-2-oxopyrrolidin-3-yl]methyl]amino]carbamoyl]-6,6-dimethyl-3-azabicyclo[3.1.0]hexane-3-carbonyl]-2,2-dimethyl-butyl]-2,2-difluoro-acetamide] showed an IC50 [1] of 30 nM, an IC50 [2] of 130 nM and an IC50 [3] of 13 nM. It also gave an IC50 [4] of 20 nM.

`CCC(C)(C)[C@H](NC(=O)C1(F)CC1)C(=O)N1C[C@@H]2CCC[C@@H]2[C@H]1C(=O)NN(C[C@@H]1CCNC1=O)C(=O)[C@H](F)Cl` [Example 149, N-[(1S)-1-[(3S,3aS,6aR)-3-[[[(2R)-2-chloro-2-fluoro-acetyl]-[[(3S)-2-oxopyrrolidin-3-yl]methyl]amino]carbamoyl]-3,3a,4,5,6,6a-hexahydro-1H-cyclopenta[c]pyrrole-2-carbonyl]-2,2-dimethyl-butyl]-1-fluoro-cyclopropanecarboxamide] showed an IC50 [1] of 45 nM, an IC50 [2] of 139 nM and an IC50 ([3]; read-out: IC50 in SARS-CoV-2 3CLpro assay) of 6 nM. For the same compound, the IC50 [4] was 15 nM.

Work on `CCC(C)(C)[C@H](NC(=O)[C@@H]1CC1(F)F)C(=O)N1C[C@@H]2CCC[C@@H]2[C@H]1C(=O)NN(C[C@@H]1CCNC1=O)C(=O)[C@H](F)Cl` [Example 150, (1S)—N-[(1S)-1-[(3S,3aS,6aR)-3-[[[(2R)-2-chloro-2-fluoro-acetyl]-[[(3S)-2-oxopyrrolidin-3-yl]methyl]amino]carbamoyl]-3,3a,4,5,6,6a-hexahydro-1H-cyclopenta[c]pyrrole-2-carbonyl]-2,2-dimethyl-butyl]-2,2-difluoro-cyclopropanecarboxamide] yielded an IC50 [1] of 33 nM, an IC50 [2] of 63 nM and an IC50 [3] of 11 nM. The IC50 [4] was 16 nM.
